Assay results from patent US20240366648A1, “NAD-AUGMENTATION THERAPY FOR PARKINSON'S DISEASE” (Vestlandets Innovasjonsselskap AS (VIS), priority 2021, published 2024).

Key:
[1] = tested on: gene expression in PBMCs; assay: RNA-seq differential gene expression in PBMCs; type: in vivo, human
Protocol: For all subjects at both visits, total RNA was extracted from muscle biopsy tissue and PBMC homogenate using RNeasy plus mini kit (Qiagen) with on-column DNase treatment according to manufacturer's protocol. The final elution was made in 45 ul of dH2O. The concentration and integrity of the total RNA were estimated by Ribogreen assay (Thermo Fisher Scientific), and Fragment Analyzer (Advanced Analytical), respectively, and 10 ng of total RNA was used for downstream RNA-seq applications using the SMARTer Stranded Total RNA-Seq Kit v2—Pico Input Mammalian Kit (IlluminaTakara Bio USA, Inc., Mountian View, CA) as per manufacturer's recommended protocol. Library quantity was assessed by Picogreen Assay (Thermo Fisher Scientific), and the library quality was estimated by utilizing a DNA High Sense chip on a Caliper Gx (Perkin Elmer). Accurate quantification of the final libraries for sequencing applications was determined using the qPCR-based KAPA Biosystems Library Quantification kit (Kapa Biosystems, Inc.). Each library pooled equimolar prior to clustering. One hundred bp paired-end sequencing was performed on an Illumina NovaSeq S4 sequencer (Illumina, Inc.). Two subjects were discarded from the PBMC samples and two from the muscle samples due to either insufficient tissue quantity, participant drop out/lack of sample, or being outliers in expression.
FASTQ files were assessed using fastQC version 0.11.9. Quantification at the transcript level was calculated using Salmon version 1.3.0 with fragment-level GC bias correction against the GENCODE version 35, with the whole genome as decoy sequence. Transcript-level quantification was collapsed onto gene-level using the tximport R package version 1.8.0. Genes in non-canonical chromosomes and scaffolds and transcripts encoded by the mitochondrial genome were filtered out, together with non-protein-coding genes. Low-expressed genes were likewise removed from downstream analyses (expression below 10 reads for 75% of the samples). PBMC and muscle datasets were analysed independently. For PBMC samples, cell type composition was assessed employing ABIS. Differential gene expression was performed using the DESeq2 R package version 1.22.2. The generalized linear model formula accounted for both interindividual variability between subjects and the normal course of the experiment (baseline for each subject and baseline for the time-course). Multiple hypothesis testing was performed with the default automatic filtering of DESeq2 followed by false discovery rate (FDR) calculation by the Benjamini-Hochberg procedure.

[2] = tested on: drosophila fly models; conditions: Schöndorf et al. 2018; cited from earlier work
[3] = tested on: rats; conditions: rat, in vivo; cited from earlier work
[4] = tested on: NAD metabolome in CSF; assay: CSF metabolomics (LC-MS); type: in vivo, human; conditions: all NR-recipients; oral NR 1000 mg/day, 30 days
Protocol: Biological material was collected at both visits, following a minimum 6-hour fasting and within 6 hours after study drug intake for visit 2. Sampling included whole blood, serum, peripheral blood mononuclear cells (PBMCs), cerebrospinal fluid (CSF) and muscle biopsy. Lumbar puncture was performed according to standard clinical procedures to collect 10 ml CSF. Needle biopsy of the vastus lateralis muscle was performed using a Bard Magnum biopsy gun (BD©, United States) and 12G×10 cm biopsy needles. Muscle biopsies were immediately dissected to remove any non-muscle tissue (e.g., fat or fascia) and snap-frozen in liquid nitrogen.
The extraction of metabolites from CSF samples was carried out as follows: 400 μl of each sample were mixed with 1600 μl of ice-cold UHPLC grade methanol. […] Recovery rate was tested for several relevant nucleotides and determined to be 93-96%, depending on the nucleotide.
Metabolite analysis was conducted using a Dionex UltiMate 3000 instrument coupled with an electrospray ionization (ESI) QExactive mass spectrometer (Thermo Scientific). […] Mass spectra were recorded using targeted single ion monitoring with an isolation window of 10 m/z with automatic gain control set to a target of […] and a maximum accumulation time of 300 ms. […] Absolute concentrations were calculated by external calibration curves using pure standards. […]

NC(=O)c1ccc[n+]([C@@H]2O[C@H](CO)[C@@H](O)[C@H]2O)c1 [NR, nicotinamide riboside]
BLOC1S2 expression in PBMCs ([1]; NR vs placebo): upregulation
functional enrichment in PBMCs: ribosomal, proteasomal, lysosomal and mitochondrial (oxidative phosphorylation) pathways ([1]; NR vs placebo): highly significant upregulation
genes encoding known NAD biosynthetic enzymes including NMRK1 ([1]; NR vs placebo): No significant changes
number of genes significantly associated with NR supplementation in PBMCs ([1]; NR vs placebo): 13 genes
Direction of pathway enrichment (MitoCarta v3.0): mtRNA metabolism ([1]; P 0.003136, corrected P 0.13170171): DOWN
Direction of pathway enrichment (MitoCarta v3.0): mt-tRNA modifications ([1]; P 0.009994, corrected P 0.209874): DOWN
Direction of pathway enrichment (MitoCarta v3.0): Cl assembly factors ([1]; P 0.013122, corrected P 0.183708): DOWN
Direction of pathway enrichment (MitoCarta v3.0): mtRNA granules ([1]; P 0.018336, corrected P 0.192528): DOWN
Direction of pathway enrichment (MitoCarta v3.0): Vitamin metabolism ([1]; P 0.02605831, corrected P 0.21888977): DOWN
Direction of pathway enrichment (MitoCarta v3.0): Mitochondrial ribosome assembly ([1]; P 0.027256, corrected P 0.190792): DOWN
Direction of pathway enrichment (MitoCarta v3.0): mt-tRNA synthetases ([1]; P 0.03548, corrected P 0.21288): DOWN
Direction of pathway enrichment (MitoCarta v3.0): OXPHOS assembly factors ([1]; P 0.04239743, corrected P 0.2225865): DOWN
association with estimated cell type proportions in PBMC samples ([1]; p>0.5): did not show a significant association
mitochondrial defects and dopaminergic neuronal loss in drosophila fly models [2]: rescues mitochondrial defects and age-related dopaminergic neuronal loss
non-lethal oral dose [3]: ≥ 5000 mg/kg
CSF Me-2-PY levels [4]: increase
